For 34 molecules, IC50 results are on record in US20090264415A2 (priority 2004, published 2009).

pIC50: −log10 of the molar value. Where only a bound is given, the exact number is not on record here.

The test system of one assay is peripheral blood mononuclear cells (PBMC) stimulated with allogeneic PBMC or EBV-transformed human B cells (RPMI1788). The experiment in a line: Mixed lymphocyte reaction (MLR) assay. Type of assay: cell-based. Conditions: 50% suppression of the MLR, [3H]-thymidine incorporation; read-out: MLR. Put shortly:
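Compounds, held as 10 mM DMSO stocks and diluted in culture medium, were added to PBMC stimulated by 30 Gy-irradiated allogeneic PBMC or RPMI1788 cells. Proliferation was read as [3H]-thymidine uptake (1 μCi, final 16 h) after 5 days at 37° C. Inhibition was derived from cpm.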
(Incorporation of labelled thymidine or its analogues reports DNA synthesis.)
Take `Nc1nc(N2CCN(CCOc3ccccc3)CC2)c2nc(-c3ccc(F)cc3)ccc2n1` [Example 205]: the pIC50 was 5.26.

Staying with this assay, now noted: Homo sapiens, RPMI-1788; 50% suppression of the MLR, [3H]-thymidine incorporation; read-out: MLR.
Regarding `COc1ccc(-c2ccc3nc(N)nc(N)c3n2)cc1OC` [Example 256, 2,4-diamino-6-(3,4-dimethoxyphenyl)-pyrido[3,2-d]pyrimidine], the pIC50 was 6.22.

Regarding `COc1ccc(-c2ccc3nc(N)nc(N4CCC(O)(c5ccc(Cl)cc5)CC4)c3n2)cc1OC` [Example 269, 2-amino-4-(4-chlorophenyl-4-hydroxypiperidin-1-yl)-6-(3,4-dimethoxyphenyl)-pyrido[3,2-d]pyrimidine], the pIC50 was 5.51.

On to `Nc1nc(N2CCOCC2)c2nc(-c3ccc(Cl)c(Cl)c3)ccc2n1` [184/231, 2-amino-4-(morpholino)-6-(3,4-dichlorophenyl)-pyrido[3,2-d]pyrimidine], for which the pIC50 was 5.41.

Still in this assay, the particulars now being: Homo sapiens, RPMI-1788; MLR assay of example 319; read-out: MLR IC50.
`Cc1cccc(NC(=O)N[C@H]2CCN(c3nc(N)nc4ccc(-c5ccc(F)cc5)nc34)C2)c1` [Example 578]: the pIC50 is less than 5.00.

Take `COc1cc(-c2ccc3nc(N)nc(N4CCN(C(=O)COc5ccc(Cl)cc5)CC4)c3n2)ccc1O` [Example 496, 2-amino-4-[N-(4-chlorophenoxyacetyl)-piperazin-1-yl]-6-(3-methoxy-4-hydroxyphenyl)-pyrido(3,2-d)pyrimidine]: the pIC50 was 7.15.

As to `CC(=O)Nc1ccc(-c2ccc3nc(N)nc(N4CCN(C(=O)COc5ccc(Cl)cc5)CC4)c3n2)cc1` [Example 449, 2-amino-4-[4-(4-chlorophenoxyacetyl)piperazin-1-yl]-6-[4-(acetamido)phenyl]-pyrido-[3,2-d]pyrimidine], the pIC50 was 7.41.

Turning to `CCN(CC)C(=O)N1CCN(c2nc(N)nc3ccc(-c4ccc(F)cc4)nc23)CC1` [Example 463, 2-amino-4-[4-(diethylcarbamoyl)piperazin-1-yl]-6-(4-fluorophenyl)-pyrido[3,2-d]pyrimidine], the pIC50 was 6.22.

On to `Nc1nc(N2CCN(C(=O)COc3ccc(Cl)cc3)CC2)c2nc(-c3c(F)cccc3Cl)ccc2n1` [Example 442, 2-amino-4-[4-(4-chlorophenoxyacetyl)piperazin-1-yl]-6-(2-chloro-6-fluorophenyl)-pyrido-[3,2-d]pyrimidine], for which the pIC50 is 6.52.

As to `CCOC(=O)c1ccc(-c2ccc3nc(N)nc(N4CCN(C(=O)COc5ccc(Cl)cc5)CC4)c3n2)cc1` [Example 510, 2-amino-4-[N-(4-chlorophenoxyacetyl)-piperazin-1-yl]-6-(4-ethoxycarbonylphenyl)-pyrido(3,2-d)pyrimidine], the pIC50 was 7.49.

For `Cc1cccc(NC(=O)N2CCN(c3ncnc4ccc(-c5ccc(C#N)cc5)nc34)CC2)c1` [Example 553, 4-[(3-methylphenylcarbamoyl)-piperazin-1-yl]-6-(4-cyanophenyl) Pyrido[3,2-d]pyrimidine], the pIC50 is 7.22.

As to `COc1cc(-c2ccc3nc(N)nc(N4CCN(C(=O)COc5ccc(Cl)cc5)CC4)c3n2)ccc1OCc1ccccc1` [Example 501, 2-amino-4-[N-(4-chlorophenoxyacetyl)-piperazin-1-yl]-6-(3-methoxy-4-benzyloxyphenyl)-pyrido(3,2-d)pyrimidine], the pIC50 is less than 5.00.

Consider `Nc1nc(N2CCN(C(=O)COc3ccc(Cl)cc3)CC2)c2nc(-c3c(Cl)cccc3Cl)ccc2n1` [Example 438, 2-amino-4-[4-(4-chlorophenoxyacetyl)piperazin-1-yl]-6-(2,6-dichlorophenyl)-pyrido-[3,2-d]pyrimidine], for which the pIC50 is 6.15.

In the case of `Nc1nc(N2CCN(C(=O)COc3ccc(Cl)cc3)CC2)c2nc(-c3ccc(OC(F)(F)F)cc3)ccc2n1` [Example 439, 2-amino-4-[4-(4-chlorophenoxyacetyl)piperazin-1-yl]-6-(4-trifluoromethoxyphenyl)-pyrido-[3,2-d]pyrimidine], the pIC50 is 6.52.

`Nc1nc(N2CCN(C(=O)COc3ccc(Cl)cc3)CC2)c2nc(Cl)ccc2n1` [Example 492, 2-amino-4-(N-(4-chlorophenoxyacetyl)-piperazin-1-yl)-6-chloro-pyrido[3,2-d]pyrimidine]: the pIC50 is 7.10.

Regarding `Nc1nc(N2CCN(C(=O)COc3ccc(Cl)cc3)CC2)c2nc(-c3ccc(F)cc3F)ccc2n1` [Example 423, 2-amino-4-[4-(4-chlorophenoxyacetyl)piperazin-1-yl]-6-(2,4-difluorophenzyl)pyrido-[3,2-d]pyrimidine], the pIC50 is 7.00.

Take `Nc1nc(N2CCN(C(=O)COc3ccc(Cl)cc3)CC2)c2nc(-c3ccccc3Cl)ccc2n1` [Example 430, 2-amino-4-[4-(4-chlorophenoxyacetyl)piperazin-1-yl]-6-(2-chlorophenyl)pyrido-[3,2-d]pyrimidine]: the pIC50 is 7.40.

Regarding `CC(C)(C)OC(=O)N1CCN(c2nc(N3CCCC3)nc3ccc(-c4ccc(F)cc4)nc23)CC1` [Example 567, 6-(4-fluorophenyl)-4-(4-Boc-piperazino)-2-pyrrolidino-pyrido[3,2-d]pyrimidine], the pIC50 was less than 5.00.

Regarding `CCOc1ccc(-c2ccc3nc(N)nc(N4CCN(C(=O)COc5ccc(Cl)cc5)CC4)c3n2)cc1` [Example 494, 2-amino-4-[N-(4-chlorophenoxyacetyl)-piperazin-1-yl]-6-(4-ethoxyphenyl)-pyrido(3,2-d)pyrimidine], the pIC50 is 7.48.

Take `Nc1nc(N2CCN(C(=O)COc3ccc(Br)cc3)CC2)c2nc(-c3ccc(F)cc3)ccc2n1` [Example 388, 2-amino-4-[4-(4-bromophenoxyacetyl)piperazin-1-yl]-6-(4-fluorophenyl)-pyrido[3,2-d]pyrimidine]: the pIC50 was 7.30.

For `Nc1nc(N2C[C@@H]3C[C@H]2CN3C(=O)COc2ccc(Cl)cc2)c2nc(-c3ccc(F)cc3)ccc2n1` [Example 484, (S,S)-1-{5-[2-amino-6-(4-fluorophenyl)-pyrido[3,2-d]pyrimidin-4-yl]-2,5-diaza-bicyclo[2.2.1]hept-2-yl}-2-(4-chlorophenoxy)-ethanone], the pIC50 is 5.59.

As to `Nc1nc(N2CCN(C(=O)COc3ccc(Cl)cc3)CC2)c2nc(-c3ccc(O)cc3)ccc2n1` [Example 415, 2-amino-4-[4-(4-chlorophenoxyacetyl)piperazin-1-yl]-6-(4-hydroxyphenyl)pyrido-[3,2-d]pyrimidine], the pIC50 was 8.22.

As for `Nc1nc(N2CCN(C(=O)COc3ccc(Cl)cc3)CC2)c2nc(-c3ccc(Cl)cc3Cl)ccc2n1` [Example 427, 2-amino-4-[4-(4-chlorophenoxyacetyl)piperazin-1-yl]-6-(2,4-dichlorophenyl)-pyrido-[3,2-d]pyrimidine], the pIC50 was 6.52.

In the case of `Cc1ccccc1-c1ccc2nc(N)nc(N3CCN(C(=O)COc4ccc(Cl)cc4)CC3)c2n1` [Example 512, 2-amino-4-[N-(4-chlorophenoxyacetyl)-piperazin-1-yl]-6-(2-methyl-phenyl)-pyrido(3,2-d)pyrimidine], the pIC50 was 8.10.

As for `Cc1cccc(NC(=O)N2CCN(c3nc(N)nc4ccc(Cl)nc34)CC2)c1` [Example 541, 2-amino-4-[(3-methylphenylcarbamoyl)-piperazin-1-yl]-6-chloro-pyrido[3,2-d]pyrimidine], the pIC50 is 7.22.

Regarding `Nc1nc(N2CCN(C(=O)COc3ccc(Cl)cc3)CC2)c2nc(-c3cc(F)ccc3F)ccc2n1` [Example 440, 2-amino-4-[4-(4-chlorophenoxyacetyl)piperazin-1-yl]-6-(2,5-difluorophenyl)pyrido-[3,2-d]pyrimidine], the pIC50 is 7.15.

Turning to `Cc1cccc(NC(=O)N2CCN(c3ncnc4ccc(-c5cc(F)c(F)c(F)c5)nc34)CC2)c1` [Example 561, 4-[(3-methylphenylcarbamoyl)-piperazin-1-yl]-6-(3,4,5-trifluorophenyl)pyrido[3,2-d]pyrimidine], the pIC50 was 6.38.

With `CC(C)(C)OC(=O)N[C@@H]1CCN(c2nc(N)nc3ccc(-c4ccc(F)cc4)nc23)C1` [Example 575, 2-amino-4-[(R)-3-Boc-amino-pyrrolidin-1-yl]-6-(4-fluorophenyl)-pyrido(3,2-d)pyrimidine], the pIC50 is less than 5.00.

As for `Cc1ccc(-c2ccc3nc(N)nc(N4CCN(C(=O)COc5ccc(Cl)cc5)CC4)c3n2)cc1N` [Example 507, 2-amino-4-[N-(4-chlorophenoxyacetyl)-piperazin-1-yl]-6-(3-amino-4-methylphenyl)-pyrido(3,2-d)pyrimidine], the pIC50 is 7.54.

Turning to `Cc1cccc(NC(=O)N2CCN(c3nc(N)nc4ccc(-c5cccc(C#N)c5)nc34)CC2)c1` [Example 545, 2-amino-4-[(3-methylphenylcarbamoyl)-piperazin-1-yl]-6-(3-cyanophenyl)-pyrido[3,2-d]pyrimidine], the pIC50 is 7.52.

Turning to `CS(=O)(=O)c1ccc(-c2ccc3nc(N)nc(N4CCN(C(=O)COc5ccc(Cl)cc5)CC4)c3n2)cc1` [Example 417, 2-amino-4-[4-(4-chlorophenoxyacetyl)piperazin-1-yl]-6-(4-(methanesulfonyl)-phenyl)pyrido-[3,2-d]pyrimidine], the pIC50 is 7.55.

As to `COc1ccc(-c2ccc3nc(N)nc(N4CCN(C(=O)COc5ccc(Cl)cc5)CC4)c3n2)cc1C` [Example 509, 2-amino-4-[N-(4-chlorophenoxyacetyl)-piperazin-1-yl]-6-(3-methyl-4-methoxyphenyl)-pyrido(3,2-d)pyrimidine], the pIC50 is 7.51.

Consider `Cc1cccc(NC(=O)N2CCN(c3ncnc4ccc(-c5cccc(C#N)c5)nc34)CC2)c1` [Example 554, 4-[(3-methylphenylcarbamoyl)-piperazin-1-yl]-6-(3-cyanophenyl)pyrido[3,2-d]pyrimidine], for which the pIC50 was 7.43.

For the molecule `COCCNCc1nc(N2CCN(C(=O)Nc3cccc(C)c3)CC2)c2nc(-c3ccc(F)cc3)ccc2n1` [Example 538, 2-(N-methoxyethylamino)methyl-4-[N-(3-methylphenylcarbamoyl)piperazin-1-yl]-6-(4-fluorophenyl)-pyrido[3,2-d]pyrimidine], the pIC50 is 6.47.
